Reference: ChEMBL document CHEMBL5576083, “Structure-Based Design and Synthesis of Covalent Inhibitors for Deubiquitinase and Acetyltransferase ChlaDUB1 of Chlamydia trachomatis” (J Med Chem, 2024)
≈ marks a conversion by molar mass, not a printed value. Calls of active or inactive are those of the source. The calls are words filed in the database; no cut-off is given here.

Experiments:
[1] = molecular target: Ubiquitin carboxyl-terminal hydrolase 7 (Homo sapiens) (UniProt Q93009); experiment: Binding affinity to USP7 (208 to 1102 residues) (unknown origin) expressed in Sf9 insect cells assessed as ratio of Kinact/Ki incubated for 3 hrs by fluorescence based analysis
Chlamydia trachomatis [2] = experiment: Anti-chlamydial activity against Chlamydia trachomatis serovar L2 infected in human HEp-2 cells assessed as inhibition of chlamydial inclusion incubated for 24 hrs by Alexa488/DAPI staining based immunofluorescence assay; format: functional, organism-based; settings: serovar L2, HEp-2, 24 h
[3] = Covalent inhibition of C-terminal 6His-tagged Chlamydia trachomatis DUB1 (130 to 401 residues) expressed in Escherichia coli Rosetta 2 (DE3) cells using Ub-Rh110Gly as fluorogenic substrate preincubated for 1 hr followed by substrate addition by plate reader analysis
Chlamydia trachomatis [4] = experiment: Antimicrobial activity against Chlamydia trachomatis serovar L2 infected in human HeLa cells assessed as reduction in inclusion forming unit at 1 ug/ml measured at 24 to 48 hrs of post-infection by immunofluorescence based microscopic analysis; format: functional, organism-based; settings: dose 1.0 µg/ml, time 24-48 hrs
Chlamydia trachomatis [5] = experiment: Antimicrobial activity against Chlamydia trachomatis serovar L2 infected in human HeLa cells assessed as fold increase in inclusion forming unit at 1 ug/ml measured after 48 hrs of post-infection by immunofluorescence based microscopic analysis; format: functional; settings: dose 1 µg/ml
[6] = molecular target: T1, Ubiquitin carboxyl-terminal hydrolase isozyme L1 (Homo sapiens, UniProt P09936); experiment: Inhibition of 6His-tagged human UCHL1 using Ub-Rh110Gly as fluorogenic substrate preincubated for 1 hr followed by substrate addition by plate reader analysis
T1 sequence (P09936 whole entry): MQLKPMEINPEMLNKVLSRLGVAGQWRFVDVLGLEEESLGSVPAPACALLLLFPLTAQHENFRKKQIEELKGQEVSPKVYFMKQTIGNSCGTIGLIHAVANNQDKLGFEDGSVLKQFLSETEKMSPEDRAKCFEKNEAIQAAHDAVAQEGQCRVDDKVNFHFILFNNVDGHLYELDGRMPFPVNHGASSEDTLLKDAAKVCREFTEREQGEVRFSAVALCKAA

[7] = (§1) Binding affinity to C-terminal 6His-tagged Chlamydia trachomatis DUB1 (130 to 401 residues) expressed in Escherichia coli Rosetta 2 (DE3) cells using Ub-Rh110Gly as fluorogenic substrate assessed as inhibition constant preincubated for 60 mins followed by substrate addition measured after 360 mins by plate reader analysis
Chlamydia trachomatis [8] = experiment: as §1, with “Kinact” for “inhibition constant”; settings: time 420.0 min
Chlamydia trachomatis [9] = experiment: as §1, with “ratio of Kinact/Ki” for “inhibition constant”; settings: time 420.0 min
[10] = molecular target: Ubiquitin carboxyl-terminal hydrolase isozyme L1 (Homo sapiens) (UniProt P09936); experiment: Binding affinity to human UCHL1 (1 to 223 residues) expressed in Escherichia coli Rosetta 2 (DE3) cells using Ub-Rh110Gly as fluorogenic substrate assessed as ratio of Kinact/Ki by fluorescence based analysis
Chlamydia trachomatis [11] = experiment: Antimicrobial activity against Chlamydia trachomatis serovar L2 infected in human HeLa cells assessed as reduction in inclusion circumference at 6.25 ug/ml measured after 24 hrs of post-infection by microscopic analysis (reference value: 33.2 micrometer); format: functional; settings: dose 6.25 µg/ml
Chlamydia trachomatis [12] = experiment: Antimicrobial activity against Chlamydia trachomatis serovar L2 infected in human HeLa cells assessed as reduction in microbial progeny at 1.56 ug/ml measured after 48 hrs of post-infection by immunofluorescence analysis; format: functional; set-up: scale not given: the % may be the effect or the level left; settings: dose 1.56 µg/ml
Chlamydia trachomatis [13] = experiment: Antimicrobial activity against Chlamydia trachomatis serovar L2 infected in human HeLa cells assessed as reduction in microbial progeny at 1.56 ug/ml measured after 24 hrs of post-infection by immunofluorescence analysis; format: functional; set-up: scale not given: the % may be the effect or the level left; settings: dose 1.56 µg/ml
Chlamydia trachomatis [14] = experiment: Antimicrobial activity against Chlamydia trachomatis serovar L2 infected in human HeLa cells assessed as reduction in inclusion circumference at 12.5 ug/ml measured after 24 hrs of post-infection by microscopic analysis (reference value: 33.2 micrometer); format: functional; settings: dose 12.5 µg/ml
Chlamydia trachomatis [15] = experiment: Antimicrobial activity against Chlamydia trachomatis serovar L2 infected in human HeLa cells assessed as reduction in inclusion area at 12.5 ug/ml measured after 24 hrs of post-infection by microscopic analysis (reference value: 79.96 microm2); format: functional; settings: dose 12.5 µg/ml
Chlamydia trachomatis [16] = experiment: Antimicrobial activity against Chlamydia trachomatis serovar L2 infected in human HeLa cells assessed as reduction in microbial progeny at 3.13 ug/ml measured after 24 hrs of post-infection by immunofluorescence analysis; format: functional; set-up: scale not given: the % may be the effect or the level left; settings: dose 3.13 µg/ml
Chlamydia trachomatis [17] = experiment: Antimicrobial activity against Chlamydia trachomatis serovar L2 infected in human HeLa cells assessed as reduction in inclusion area at 6.25 ug/ml measured after 24 hrs of post-infection by microscopic analysis (reference value: 79.96 microm2); format: functional; settings: dose 6.25 µg/ml
Chlamydia trachomatis [18] = experiment: Antimicrobial activity against Chlamydia trachomatis serovar L2 infected in human HeLa cells assessed as reduction in microbial progeny at 12.5 ug/ml measured after 24 hrs of post-infection by immunofluorescence analysis; format: functional; set-up: scale not given: the % may be the effect or the level left; settings: dose 12.5 µg/ml
Chlamydia trachomatis [19] = experiment: Antimicrobial activity against Chlamydia trachomatis serovar L2 infected in human HeLa cells assessed as reduction in microbial progeny at 3.13 ug/ml measured after 48 hrs of post-infection by immunofluorescence analysis; format: functional; set-up: scale not given: the % may be the effect or the level left; settings: dose 3.13 µg/ml
Chlamydia trachomatis [20] = experiment: Antimicrobial activity against Chlamydia trachomatis serovar L2 infected in human HeLa cells assessed as reduction in microbial progeny at 6.25 ug/ml measured after 24 hrs of post-infection by immunofluorescence analysis; format: functional; set-up: scale not given: the % may be the effect or the level left; settings: dose 6.25 µg/ml

Chain of Ubiquitin carboxyl-terminal hydrolase 7 (Homo sapiens) (Q93009 whole entry, looked up, the tested form may be a part): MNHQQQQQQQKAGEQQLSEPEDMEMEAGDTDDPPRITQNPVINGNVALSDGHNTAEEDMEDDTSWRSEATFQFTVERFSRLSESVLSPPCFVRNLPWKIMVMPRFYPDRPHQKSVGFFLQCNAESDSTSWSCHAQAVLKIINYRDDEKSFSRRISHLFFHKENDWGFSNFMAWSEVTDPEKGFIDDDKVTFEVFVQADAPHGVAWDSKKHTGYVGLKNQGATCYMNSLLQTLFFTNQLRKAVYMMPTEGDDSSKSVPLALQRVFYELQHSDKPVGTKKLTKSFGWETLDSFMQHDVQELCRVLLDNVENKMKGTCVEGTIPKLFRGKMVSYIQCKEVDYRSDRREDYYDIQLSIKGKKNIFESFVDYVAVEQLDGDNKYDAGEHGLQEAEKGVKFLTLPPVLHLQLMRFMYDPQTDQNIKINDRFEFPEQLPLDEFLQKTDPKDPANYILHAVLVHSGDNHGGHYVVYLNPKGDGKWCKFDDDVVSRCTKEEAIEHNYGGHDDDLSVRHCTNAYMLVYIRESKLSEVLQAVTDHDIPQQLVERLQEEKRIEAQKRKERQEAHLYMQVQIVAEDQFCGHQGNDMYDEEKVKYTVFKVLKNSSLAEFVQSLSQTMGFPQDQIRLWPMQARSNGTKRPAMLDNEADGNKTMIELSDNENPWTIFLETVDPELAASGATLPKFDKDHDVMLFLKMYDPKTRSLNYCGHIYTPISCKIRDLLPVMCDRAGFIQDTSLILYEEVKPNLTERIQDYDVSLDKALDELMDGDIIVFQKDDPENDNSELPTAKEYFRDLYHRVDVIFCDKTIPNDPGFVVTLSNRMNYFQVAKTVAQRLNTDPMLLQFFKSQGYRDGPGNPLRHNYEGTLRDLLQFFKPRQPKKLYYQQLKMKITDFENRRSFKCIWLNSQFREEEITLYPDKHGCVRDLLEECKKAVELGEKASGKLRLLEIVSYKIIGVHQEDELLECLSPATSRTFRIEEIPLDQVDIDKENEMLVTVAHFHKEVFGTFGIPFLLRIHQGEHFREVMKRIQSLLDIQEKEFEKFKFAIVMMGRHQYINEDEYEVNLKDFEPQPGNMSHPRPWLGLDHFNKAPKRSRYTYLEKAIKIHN

Row | Structure (SMILES) | IC50 (Chlamydia trachomatis [2]) [µg/mL] | IC50 [3] [µM] | pIC50 [3] | further results
1 | C=CS(=O)(=O)Nc1ccccc1-c1ccc(C(=O)N2CCC(O)(Cn3cnc4c(cnn4C)c3=O)CC2)cc1 | – | – | – | Ratio [1]: 66 M⁻¹ s⁻¹
2 | CC(=O)c1ccc(CNC(=O)c2cnc(C#N)nc2)cc1 | 47.4 (≈ 169 µM) | 74 | 4.13 | –
3 | C[C@H]1c2cccc(O)c2C(=O)C2=C(O)[C@]3(O)C(=O)C(C(N)=O)=C(O)[C@@H](N(C)C)[C@@H]3[C@@H](O)[C@@H]21 [DOXYCYCLINE ANHYDROUS] | 0.018 (≈ 0.0405 µM) | – | – | Activity (Chlamydia trachomatis [4]): Active; fold change (FC) (Chlamydia trachomatis [5]): 5.3
4 | Cc1nn(C)c2cc(-c3ccc(-n4cnc(NC(=O)[C@H]5CCN(C#N)C5)c4)cc3)ccc12 | – | – | – | IC50 [6]: < 1 µM
5 | N#Cc1ncc(C(=O)NCc2ccc(C(=O)NCC3CC3)cc2)cn1 | 47.7 (≈ 142 µM) | 37 | 4.43 | –
6 | N#Cc1ncc(C(=O)NCc2ccc(C(=O)NCC3CCC3)cc2)cn1 | 38.9 (≈ 111 µM) | 21 | 4.67 | –
7 | N#Cc1ncc(C(=O)NCc2ccc(C(=O)NCCC3CC3)cc2)cn1 | 40.7 (≈ 116 µM) | 25 | 4.6 | –
8 | COc1ccccc1CNC(=O)c1ccc(CNC(=O)c2cnc(C#N)nc2)cc1 | 16.9 (≈ 42.1 µM) | 31 | 4.5 | Ki [7]: 276 µM
9 | N#Cc1ncc(C(=O)NCc2ccc(C(=O)NCCN3CCOCC3)cc2)cn1 | – | 51 | 4.29 | –
10 | N#Cc1ncc(C(=O)NCc2ccc(C(=O)Cc3ccccc3)cc2)cn1 | – | 24 | 4.63 | –
11 | N#Cc1ncc(C(=O)NCc2ccc(C(=O)NCc3ccccc3)cc2)cn1 | 19.4 (≈ 52.2 µM) | 27 | 4.57 | Ki [7]: 226 µM
12 | N#Cc1ncc(C(=O)NCc2ccc(C(=O)CCN3CCOCC3)cc2)cn1 | – | 14 | 4.86 | Kinact (Chlamydia trachomatis [8]): 0.363 min⁻¹; Ratio (Chlamydia trachomatis [9]): 13.7 M⁻¹ s⁻¹; Ki [7]: 441 µM
13 | Cc1ccccc1CNC(=O)c1ccc(CNC(=O)c2cnc(C#N)nc2)cc1 | 16.9 (≈ 43.8 µM) | 18 | 4.75 | –
14 | N#Cc1ncc(C(=O)NCc2ccc(C(=O)NCCc3ccccc3)cc2)cn1 | – | 64 | 4.2 | –
15 | C#CCCCNC(=O)c1ccc(-n2cnc(NC(=O)[C@H]3CCN(C#N)C3)c2)cc1 | – | – | – | Ratio [10]: 681 M⁻¹ s⁻¹
16 | CCOc1ccccc1CNC(=O)c1ccc(CNC(=O)c2cnc(C#N)nc2)cc1 | 15.8 (≈ 38 µM) | 13 | 4.9 | –
17 | COc1cccc(CNC(=O)c2ccc(CNC(=O)c3cnc(C#N)nc3)cc2)c1 | > 50 | 81 | 4.09 | –
18 | Cc1cccc(CNC(=O)c2ccc(CNC(=O)c3cnc(C#N)nc3)cc2)c1 | 17.3 (≈ 44.9 µM) | 21 | 4.68 | –
19 | N#Cc1ncc(C(=O)NCc2ccc(C(=O)NCC3CCCCC3)cc2)cn1 | – | 23 | 4.64 | –
20 | CCCN(CCC)C(=O)c1ccc(CNC(=O)c2cnc(C#N)nc2)cc1 | – | 74 | 4.13 | –
21 | N#Cc1ncc(C(=O)NCc2ccccc2)cn1 | – | 154 | 3.82 | –
22 | CC(C)(C)N(Cc1ccc(C(=O)Cc2ccccc2)cc1)C(=O)c1cnc(C#N)nc1 | 9.88 (≈ 24 µM) | 41 | 4.13 | Activity (Chlamydia trachomatis [11]): 24.83 um; Activity (Chlamydia trachomatis [12]): 55.5%; Activity (Chlamydia trachomatis [13]): 16.5%; Activity (Chlamydia trachomatis [14]): 18.05 um; Activity (Chlamydia trachomatis [15]): 23.3 um2; Activity (Chlamydia trachomatis [16]): 31.5%; Activity (Chlamydia trachomatis [17]): 44.93 um2; Activity (Chlamydia trachomatis [18]): 81%; Activity (Chlamydia trachomatis [19]): 51.5%; Activity (Chlamydia trachomatis [20]): 38.5%
23 | N#Cc1ncc(C(=O)NCc2ccc(C(=O)N3CCc4ccccc4C3)cc2)cn1 | – | 16 | 4.79 | –
24 | COc1ccc(CNC(=O)c2ccc(CNC(=O)c3cnc(C#N)nc3)cc2)cc1 | – | 521 | 3.28 | –
25 | Cc1ccc(CNC(=O)c2ccc(CNC(=O)c3cnc(C#N)nc3)cc2)cc1 | – | 241 | 3.62 | –
26 | CC(C)CN(CC(C)C)C(=O)c1ccc(CNC(=O)c2cnc(C#N)nc2)cc1 | 28.4 (≈ 72.2 µM) | 35 | 4.46 | –
27 | N#Cc1ncc(C(=O)NCc2ccc(C(=O)NCc3nccs3)cc2)cn1 | – | 31 | 4.51 | –
28 | Cn1c(-c2ccc(CNC(=O)c3cnc(C#N)nc3)cc2)nc2ccccc21 | – | 131 | 3.88 | –
